Assay results as given in the kinase profiling compilation of Christmann-Franck et al. (2016).
Values joined by “and” are separate entries in the source; they are usually repeats but may differ in a detail not shown here. Equal entries are not always repeated.

Assays:
Experiment in all cases: KINOMEscan competition binding
Conditions in all cases: compound 10.0 µM
AURKA (human) = AURKA (human) (UniProt O14965)
BMPR1A (human) = BMPR1A (human) (UniProt P36894)
BRSK1 (human) = BRSK1 (human) (UniProt Q8TDC3)
CAMK2G (human) = CAMK2G (human) (UniProt Q13555)
CDC2L2 (human) = CDC2L2 (human) (UniProt Q9UQ88)
CIT (human) = CIT (human) (UniProt O14578)
CLK2 (human) = CLK2 (human) (UniProt P49760)
CSNK2A1 (human) = CSNK2A1 (human) (UniProt P68400)
CSNK2A2 (human) = CSNK2A2 (human) (UniProt P19784)
DDR2 (human) = DDR2 (human) (UniProt Q16832)
DYRK1A (human) = DYRK1A (human) (UniProt Q13627)
[1] = tested on: EGFR (human), P00533 [L858R]
EIF2AK1 (human) = EIF2AK1 (human) (UniProt Q9BQI3)
EPHA4 (human) = EPHA4 (human) (UniProt P54764)
EPHB6 (human) = EPHB6 (human) (UniProt O15197)
GRK4 (human) = GRK4 (human) (UniProt P32298)
HIPK3 (human) = HIPK3 (human) (UniProt Q9H422)
[2] = target: JAK2 JH1 catalytic (human) (UniProt O60674)
MAK (human) = MAK (human) (UniProt P20794)
MAP2K5 (human) = MAP2K5 (human) (UniProt Q13163)
MAP2K6 (human) = MAP2K6 (human) (UniProt P52564)
MAP2K7 (human) = MAP2K7 (human) (UniProt O14733)
MAP4K4 (human) = MAP4K4 (human) (UniProt O95819)
MAPK14 (human) = MAPK14 (human) (UniProt Q16539)
MAPK4 (human) = MAPK4 (human) (UniProt P31152)
MATK (human) = MATK (human) (UniProt P42679)
MST1R (human) = MST1R (human) (UniProt Q04912)
MYLK2 (human) = MYLK2 (human) (UniProt Q9H1R3)
PIP5K1A (human) = PIP5K1A (human) (UniProt Q99755)
RIOK2 (human) = RIOK2 (human) (UniProt Q9BVS4)
RIPK1 (human) = RIPK1 (human) (UniProt Q13546)
ROCK1 (human) = ROCK1 (human) (UniProt Q13464)
RPS6KA2 KD1 (human) = RPS6KA2 KD1 (human) (UniProt Q15349)
RPS6KA3 KD1 (human) = RPS6KA3 KD1 (human) (UniProt P51812)
SRC (human) = SRC (human) (UniProt P12931)
STK16 (human) = STK16 (human) (UniProt O75716)
STK17B (human) = STK17B (human) (UniProt O94768)
TGFBR2 (human) = TGFBR2 (human) (UniProt P37173)
[3] = target: TYK2 JH2 pseudokinase (human) (UniProt P29597)
WEE2 (human) = WEE2 (human) (UniProt P0C1S8)

STK17B (human), sequence (O94768 whole entry, looked up): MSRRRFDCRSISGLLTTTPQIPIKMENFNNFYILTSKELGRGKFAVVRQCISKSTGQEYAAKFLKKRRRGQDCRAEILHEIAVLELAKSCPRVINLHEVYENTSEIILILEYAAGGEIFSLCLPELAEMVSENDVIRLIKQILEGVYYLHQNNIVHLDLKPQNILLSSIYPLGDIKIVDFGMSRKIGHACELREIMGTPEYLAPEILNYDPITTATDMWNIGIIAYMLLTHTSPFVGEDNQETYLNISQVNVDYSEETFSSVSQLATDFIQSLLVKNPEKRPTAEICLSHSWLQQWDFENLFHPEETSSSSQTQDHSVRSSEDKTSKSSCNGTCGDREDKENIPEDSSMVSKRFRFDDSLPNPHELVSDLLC
TGFBR2 (human), sequence (P37173 whole entry, looked up): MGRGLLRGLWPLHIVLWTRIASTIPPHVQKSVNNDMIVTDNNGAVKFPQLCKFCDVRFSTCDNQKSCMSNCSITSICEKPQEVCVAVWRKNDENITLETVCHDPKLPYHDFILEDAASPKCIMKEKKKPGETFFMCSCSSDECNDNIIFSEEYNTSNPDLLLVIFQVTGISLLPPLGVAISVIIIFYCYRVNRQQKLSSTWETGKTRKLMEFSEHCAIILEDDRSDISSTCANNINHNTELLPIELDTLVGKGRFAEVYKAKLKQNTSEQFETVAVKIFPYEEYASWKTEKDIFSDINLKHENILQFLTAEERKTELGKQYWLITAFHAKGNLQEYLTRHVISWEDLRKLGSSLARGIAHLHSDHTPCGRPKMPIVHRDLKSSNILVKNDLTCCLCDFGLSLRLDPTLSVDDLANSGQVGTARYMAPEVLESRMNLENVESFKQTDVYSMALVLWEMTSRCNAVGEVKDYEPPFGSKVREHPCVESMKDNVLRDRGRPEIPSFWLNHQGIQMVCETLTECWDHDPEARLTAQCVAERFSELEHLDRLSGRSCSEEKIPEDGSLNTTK
MAP2K7 (human), sequence (O14733 whole entry, looked up): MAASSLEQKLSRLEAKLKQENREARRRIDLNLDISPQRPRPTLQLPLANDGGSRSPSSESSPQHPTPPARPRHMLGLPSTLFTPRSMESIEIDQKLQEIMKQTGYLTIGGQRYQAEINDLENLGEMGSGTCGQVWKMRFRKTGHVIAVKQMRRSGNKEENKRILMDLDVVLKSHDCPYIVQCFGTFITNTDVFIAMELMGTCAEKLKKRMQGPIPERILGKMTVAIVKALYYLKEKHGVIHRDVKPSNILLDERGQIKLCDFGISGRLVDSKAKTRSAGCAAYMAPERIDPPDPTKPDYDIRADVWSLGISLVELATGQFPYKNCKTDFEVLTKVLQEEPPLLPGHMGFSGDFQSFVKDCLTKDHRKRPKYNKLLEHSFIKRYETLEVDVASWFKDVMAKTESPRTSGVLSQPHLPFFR
MAK (human), sequence (P20794 whole entry, looked up): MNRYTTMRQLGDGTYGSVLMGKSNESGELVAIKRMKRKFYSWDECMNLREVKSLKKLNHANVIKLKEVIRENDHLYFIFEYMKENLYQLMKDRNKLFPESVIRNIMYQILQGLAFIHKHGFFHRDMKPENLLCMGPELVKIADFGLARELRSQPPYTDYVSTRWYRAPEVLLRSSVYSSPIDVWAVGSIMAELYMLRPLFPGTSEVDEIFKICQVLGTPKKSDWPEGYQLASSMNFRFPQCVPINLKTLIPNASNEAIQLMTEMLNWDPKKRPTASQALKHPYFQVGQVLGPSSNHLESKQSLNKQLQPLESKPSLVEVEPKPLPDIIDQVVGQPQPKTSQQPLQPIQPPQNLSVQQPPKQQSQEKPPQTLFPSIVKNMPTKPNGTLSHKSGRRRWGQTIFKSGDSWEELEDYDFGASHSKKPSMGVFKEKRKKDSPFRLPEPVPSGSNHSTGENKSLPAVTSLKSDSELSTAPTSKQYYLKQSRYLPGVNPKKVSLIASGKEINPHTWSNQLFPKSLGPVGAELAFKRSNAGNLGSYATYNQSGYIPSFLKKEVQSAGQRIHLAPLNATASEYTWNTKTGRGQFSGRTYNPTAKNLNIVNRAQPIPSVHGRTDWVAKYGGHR
EIF2AK1 (human), sequence (Q9BQI3 whole entry, looked up): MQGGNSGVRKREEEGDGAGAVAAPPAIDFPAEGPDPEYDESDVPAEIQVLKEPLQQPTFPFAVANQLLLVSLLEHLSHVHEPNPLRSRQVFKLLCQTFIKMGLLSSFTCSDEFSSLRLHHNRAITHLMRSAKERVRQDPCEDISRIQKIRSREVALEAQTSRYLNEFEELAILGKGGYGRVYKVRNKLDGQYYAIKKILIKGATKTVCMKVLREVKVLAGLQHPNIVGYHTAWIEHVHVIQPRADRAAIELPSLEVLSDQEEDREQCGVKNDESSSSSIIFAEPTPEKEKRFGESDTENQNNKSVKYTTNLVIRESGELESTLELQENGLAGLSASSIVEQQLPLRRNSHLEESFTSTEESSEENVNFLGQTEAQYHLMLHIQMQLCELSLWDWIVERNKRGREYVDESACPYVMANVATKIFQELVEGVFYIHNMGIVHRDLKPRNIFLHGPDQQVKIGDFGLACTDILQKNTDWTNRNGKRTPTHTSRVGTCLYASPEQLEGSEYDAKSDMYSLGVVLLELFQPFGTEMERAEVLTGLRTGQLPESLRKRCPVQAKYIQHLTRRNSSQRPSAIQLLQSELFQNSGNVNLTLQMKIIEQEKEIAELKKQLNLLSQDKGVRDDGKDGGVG
MATK (human), sequence (P42679 whole entry, looked up): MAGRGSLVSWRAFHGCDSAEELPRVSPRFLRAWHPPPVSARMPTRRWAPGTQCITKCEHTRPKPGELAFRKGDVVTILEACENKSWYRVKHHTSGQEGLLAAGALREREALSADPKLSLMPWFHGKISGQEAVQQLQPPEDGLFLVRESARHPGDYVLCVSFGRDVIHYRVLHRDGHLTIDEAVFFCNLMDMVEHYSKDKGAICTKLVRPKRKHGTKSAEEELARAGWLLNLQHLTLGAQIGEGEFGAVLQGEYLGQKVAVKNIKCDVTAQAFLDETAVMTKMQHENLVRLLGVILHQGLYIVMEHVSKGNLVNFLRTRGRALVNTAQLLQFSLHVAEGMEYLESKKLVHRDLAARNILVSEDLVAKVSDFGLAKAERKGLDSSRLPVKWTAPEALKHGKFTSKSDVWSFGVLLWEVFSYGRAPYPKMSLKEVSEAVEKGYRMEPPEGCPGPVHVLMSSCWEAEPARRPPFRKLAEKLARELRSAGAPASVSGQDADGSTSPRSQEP
CSNK2A2 (human), sequence (P19784 whole entry, looked up): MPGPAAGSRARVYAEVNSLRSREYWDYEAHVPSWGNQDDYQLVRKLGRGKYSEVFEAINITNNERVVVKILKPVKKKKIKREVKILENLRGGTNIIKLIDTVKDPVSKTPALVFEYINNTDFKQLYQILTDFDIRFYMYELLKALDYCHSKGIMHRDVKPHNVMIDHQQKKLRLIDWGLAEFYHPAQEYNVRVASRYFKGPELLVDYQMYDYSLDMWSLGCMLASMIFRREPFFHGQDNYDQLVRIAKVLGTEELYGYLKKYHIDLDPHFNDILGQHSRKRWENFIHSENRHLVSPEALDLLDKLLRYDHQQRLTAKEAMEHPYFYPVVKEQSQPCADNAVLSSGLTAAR
MAP4K4 (human), sequence (O95819 whole entry, looked up): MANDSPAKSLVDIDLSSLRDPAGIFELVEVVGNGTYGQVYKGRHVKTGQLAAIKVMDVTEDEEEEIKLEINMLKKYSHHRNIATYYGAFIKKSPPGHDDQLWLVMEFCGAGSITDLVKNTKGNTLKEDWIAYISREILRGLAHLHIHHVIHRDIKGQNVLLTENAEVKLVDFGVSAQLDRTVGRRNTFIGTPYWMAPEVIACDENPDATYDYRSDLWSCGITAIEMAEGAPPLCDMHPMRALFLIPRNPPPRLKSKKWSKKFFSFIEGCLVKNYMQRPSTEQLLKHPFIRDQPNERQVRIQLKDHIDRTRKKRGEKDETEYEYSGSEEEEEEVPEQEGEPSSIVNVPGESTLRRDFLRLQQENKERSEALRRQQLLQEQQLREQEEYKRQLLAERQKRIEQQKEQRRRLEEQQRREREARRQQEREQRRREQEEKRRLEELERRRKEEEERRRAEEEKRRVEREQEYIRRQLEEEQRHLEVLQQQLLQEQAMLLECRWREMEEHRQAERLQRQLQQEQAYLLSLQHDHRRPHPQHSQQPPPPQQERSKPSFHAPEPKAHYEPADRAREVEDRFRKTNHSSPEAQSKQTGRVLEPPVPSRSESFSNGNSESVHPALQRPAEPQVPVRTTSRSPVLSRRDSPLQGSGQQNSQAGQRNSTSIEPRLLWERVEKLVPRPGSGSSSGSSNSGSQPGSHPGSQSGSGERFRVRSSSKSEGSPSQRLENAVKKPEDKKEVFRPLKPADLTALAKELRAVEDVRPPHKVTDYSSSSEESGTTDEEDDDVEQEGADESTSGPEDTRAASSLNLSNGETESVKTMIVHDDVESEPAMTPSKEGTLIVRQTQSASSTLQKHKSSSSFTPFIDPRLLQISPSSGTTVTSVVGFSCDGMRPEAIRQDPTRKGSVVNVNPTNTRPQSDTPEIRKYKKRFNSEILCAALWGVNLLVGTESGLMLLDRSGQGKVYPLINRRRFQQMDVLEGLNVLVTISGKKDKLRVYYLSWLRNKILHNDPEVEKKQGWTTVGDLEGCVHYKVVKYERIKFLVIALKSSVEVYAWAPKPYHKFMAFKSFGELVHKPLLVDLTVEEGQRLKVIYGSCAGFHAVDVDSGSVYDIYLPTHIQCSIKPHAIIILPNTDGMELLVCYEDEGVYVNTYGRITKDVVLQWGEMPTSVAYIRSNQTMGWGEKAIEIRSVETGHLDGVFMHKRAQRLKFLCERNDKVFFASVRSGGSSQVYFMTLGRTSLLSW
STK16 (human), sequence (O75716 whole entry, looked up): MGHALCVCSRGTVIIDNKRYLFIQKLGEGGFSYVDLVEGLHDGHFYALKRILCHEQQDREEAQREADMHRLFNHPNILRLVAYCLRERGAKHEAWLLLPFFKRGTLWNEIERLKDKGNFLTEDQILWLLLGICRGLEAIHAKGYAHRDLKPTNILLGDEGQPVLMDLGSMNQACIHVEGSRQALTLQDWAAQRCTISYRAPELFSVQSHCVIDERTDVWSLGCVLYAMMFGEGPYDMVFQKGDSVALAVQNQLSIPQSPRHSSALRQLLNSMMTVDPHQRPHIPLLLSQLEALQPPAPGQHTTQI

Structure (SMILES) | kinase still bound, per cent of control (AURKA (human)) | kinase still bound, per cent of control (BMPR1A (human)) | kinase still bound, per cent of control (BRSK1 (human)) | kinase still bound, per cent of control (CAMK2G (human)) | kinase still bound, per cent of control (CDC2L2 (human)) | kinase still bound, per cent of control (CIT (human)) | kinase still bound, per cent of control (CLK2 (human)) | kinase still bound, per cent of control (CSNK2A1 (human)) | kinase still bound, per cent of control (CSNK2A2 (human)) | kinase still bound, per cent of control (DDR2 (human)) | kinase still bound, per cent of control (DYRK1A (human)) | kinase still bound, per cent of control [1] | kinase still bound, per cent of control (EIF2AK1 (human)) | kinase still bound, per cent of control (EPHA4 (human)) | kinase still bound, per cent of control (EPHB6 (human)) | kinase still bound, per cent of control (GRK4 (human)) | kinase still bound, per cent of control (HIPK3 (human)) | kinase still bound, per cent of control [2] | kinase still bound, per cent of control (MAK (human)) | kinase still bound, per cent of control (MAP2K5 (human)) | other results
CCCS(=O)(=O)Nc1ccc(F)c(C(=O)c2c[nH]c3ncc(Cl)cc23)c1F | 60% | 13% | 55% | 96% | 95% | 66% | 10% | 18% | 12% | 15% | 76% | 72% | 32% | 100% | 3.6% | 100% | 46% | 44% | 71% | 0.15% | kinase still bound, per cent of control (MAP2K6 (human)): 47%; kinase still bound, per cent of control (MAP2K7 (human)): 83%; kinase still bound, per cent of control (MAP4K4 (human)): 64%; kinase still bound, per cent of control (MAPK14 (human)): 60%; kinase still bound, per cent of control (MAPK4 (human)): 100%; kinase still bound, per cent of control (MATK (human)): 90%; kinase still bound, per cent of control (MST1R (human)): 100%; kinase still bound, per cent of control (MYLK2 (human)): 64%; kinase still bound, per cent of control (PIP5K1A (human)): 100%; kinase still bound, per cent of control (RIOK2 (human)): 3%; kinase still bound, per cent of control (RIPK1 (human)): 53%; kinase still bound, per cent of control (ROCK1 (human)): 77%; kinase still bound, per cent of control (RPS6KA2 KD1 (human)): 67%; kinase still bound, per cent of control (RPS6KA3 KD1 (human)): 56%; kinase still bound, per cent of control (SRC (human)): 9.2%; kinase still bound, per cent of control (STK16 (human)): 18%; kinase still bound, per cent of control (STK17B (human)): 68%; kinase still bound, per cent of control (TGFBR2 (human)): 6.6%; kinase still bound, per cent of control [3]: 100%; kinase still bound, per cent of control (WEE2 (human)): 100%
O=c1[nH]c2ccccc2n1C1CCN(Cc2ccc(-c3nc4cc5[nH]cnc5cc4nc3-c3ccccc3)cc2)CC1 | 68% | 77% | 100% | 100% | 100% | 47% | 90% | 96% | 92% | 76% | 90% | 53% | 87% | 100% | 69% | 100% | 87% | 67% | 100% | 72% | kinase still bound, per cent of control (MAP2K6 (human)): 100%; kinase still bound, per cent of control (MAP2K7 (human)): 80%; kinase still bound, per cent of control (MAP4K4 (human)): 80% and 100%; kinase still bound, per cent of control (MAPK14 (human)): 88%; kinase still bound, per cent of control (MAPK4 (human)): 100%; kinase still bound, per cent of control (MATK (human)): 70%; kinase still bound, per cent of control (MST1R (human)): 100%; kinase still bound, per cent of control (MYLK2 (human)): 86%; kinase still bound, per cent of control (PIP5K1A (human)): 88%; kinase still bound, per cent of control (RIOK2 (human)): 79%; kinase still bound, per cent of control (RIPK1 (human)): 100%; kinase still bound, per cent of control (ROCK1 (human)): 66%; kinase still bound, per cent of control (RPS6KA2 KD1 (human)): 51%; kinase still bound, per cent of control (RPS6KA3 KD1 (human)): 67%; kinase still bound, per cent of control (SRC (human)): 81%; kinase still bound, per cent of control (STK16 (human)): 92%; kinase still bound, per cent of control (STK17B (human)): 89%; kinase still bound, per cent of control (TGFBR2 (human)): 100%; kinase still bound, per cent of control [3]: 66%; kinase still bound, per cent of control (WEE2 (human)): 96%
C=CC(=O)Nc1ccc(C(=O)c2sc(Nc3ccc(N4CCN(C)CC4)cc3OC)nc2N)cc1 | 93% | 91% | 98% | 1.6% | 87% | 13% | 0% | 14% | 37% | 100% | 0.15% | 39% | 100% | 96% | 64% | 52% | 42% | 74% | 100% | 100% | kinase still bound, per cent of control (MAP2K6 (human)): 96%; kinase still bound, per cent of control (MAP2K7 (human)): 93%; kinase still bound, per cent of control (MAP4K4 (human)): 38%; kinase still bound, per cent of control (MAPK14 (human)): 2.7%; kinase still bound, per cent of control (MAPK4 (human)): 100%; kinase still bound, per cent of control (MATK (human)): 25%; kinase still bound, per cent of control (MST1R (human)): 100%; kinase still bound, per cent of control (MYLK2 (human)): 66%; kinase still bound, per cent of control (PIP5K1A (human)): 34%; kinase still bound, per cent of control (RIOK2 (human)): 53%; kinase still bound, per cent of control (RIPK1 (human)): 100%; kinase still bound, per cent of control (ROCK1 (human)): 42%; kinase still bound, per cent of control (RPS6KA2 KD1 (human)): 97%; kinase still bound, per cent of control (RPS6KA3 KD1 (human)): 9.6%; kinase still bound, per cent of control (SRC (human)): 100%; kinase still bound, per cent of control (STK16 (human)): 50%; kinase still bound, per cent of control (STK17B (human)): 100%; kinase still bound, per cent of control (TGFBR2 (human)): 100%; kinase still bound, per cent of control [3]: 66%; kinase still bound, per cent of control (WEE2 (human)): 100%
